Source: ChEMBL document CHEMBL1153048, “Novel and potent inhibitors of stearoyl-CoA desaturase-1. Part I: Discovery of 3-(2-hydroxyethoxy)-4-methoxy-N-[5-(3-trifluoromethylbenzyl)thiazol-2-yl]benzamide” (Bioorg Med Chem Lett, 2009)
pIC50: −log10 of the molar value.

What was measured:
Acyl-CoA desaturase 1 = biological target: T1, Acyl-CoA desaturase 1 (Mus musculus, UniProt P13516); experiment: Inhibition of SCD1 in mouse microsomes assessed as conversion of [14C]stearate to [14C]oleate after 60 mins; parameters: species or system Microsome
T1 sequence (P13516 whole entry): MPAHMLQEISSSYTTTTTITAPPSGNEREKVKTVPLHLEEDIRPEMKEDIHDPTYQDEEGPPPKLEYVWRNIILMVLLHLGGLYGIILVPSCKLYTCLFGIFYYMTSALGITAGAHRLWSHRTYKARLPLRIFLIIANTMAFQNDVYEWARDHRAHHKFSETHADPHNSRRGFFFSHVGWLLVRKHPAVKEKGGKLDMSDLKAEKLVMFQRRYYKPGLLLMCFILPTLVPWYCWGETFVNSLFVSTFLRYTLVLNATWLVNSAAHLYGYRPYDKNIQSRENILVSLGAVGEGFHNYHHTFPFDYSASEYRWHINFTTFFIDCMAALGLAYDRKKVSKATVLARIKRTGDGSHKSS

Stearoyl-CoA desaturase [1] = biological target: T2, Stearoyl-CoA desaturase (Homo sapiens, UniProt O00767); experiment: Inhibition of SCD1 in human microsomes assessed as conversion of [14C]stearate to [14C]oleate after 60 mins; parameters: species or system Microsome
T2 sequence (O00767 whole entry): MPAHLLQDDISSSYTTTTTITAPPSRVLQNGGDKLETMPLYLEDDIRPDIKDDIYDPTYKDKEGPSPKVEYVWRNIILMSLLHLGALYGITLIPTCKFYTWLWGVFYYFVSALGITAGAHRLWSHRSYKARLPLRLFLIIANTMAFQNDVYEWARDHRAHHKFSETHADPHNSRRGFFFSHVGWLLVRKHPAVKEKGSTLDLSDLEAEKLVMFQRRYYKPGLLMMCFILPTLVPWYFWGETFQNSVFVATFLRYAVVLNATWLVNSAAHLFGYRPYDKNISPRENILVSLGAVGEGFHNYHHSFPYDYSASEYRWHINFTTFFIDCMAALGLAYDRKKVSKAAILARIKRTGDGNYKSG

Stearoyl-CoA desaturase [2] = biological target: T2, Stearoyl-CoA desaturase; experiment: Inhibition of human SCD1 expressed in HEK293A cells assessed as conversion of [14C]stearate to [14C]oleate; type: cell-based, HEK293-A
[3] = biological target: T3, Acyl-CoA 6-desaturase (Homo sapiens) (UniProt O95864); experiment: Inhibition of delta-6 desaturase in human microsomes assessed as conversion of [14C]linolenic acid to [14C]stearidonic acid at 10 uM; settings: Microsome
T3 sequence (whole entry): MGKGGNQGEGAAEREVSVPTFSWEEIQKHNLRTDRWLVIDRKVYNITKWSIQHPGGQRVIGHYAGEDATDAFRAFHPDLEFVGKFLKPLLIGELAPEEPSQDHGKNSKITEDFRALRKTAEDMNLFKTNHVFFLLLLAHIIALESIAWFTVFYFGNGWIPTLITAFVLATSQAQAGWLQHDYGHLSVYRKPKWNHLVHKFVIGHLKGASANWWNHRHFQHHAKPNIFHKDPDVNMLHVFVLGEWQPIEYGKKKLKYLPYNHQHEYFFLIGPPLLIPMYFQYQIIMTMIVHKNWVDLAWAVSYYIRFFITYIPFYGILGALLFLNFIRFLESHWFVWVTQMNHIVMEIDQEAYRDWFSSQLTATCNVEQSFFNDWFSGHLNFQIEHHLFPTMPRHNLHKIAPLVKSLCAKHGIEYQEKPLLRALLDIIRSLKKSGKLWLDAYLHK

[4] = Half life in C57BL/6J mouse at 5 mg/kg; type: ADME, organism-based; parameters: dose 5 mg/kg; settings: in vivo
[5] = AUC (0 to 8 hrs) in C57BL/6J mouse at 5 mg/kg, iv measured up to 8 hrs; type: ADME, organism-based; parameters: time < 8 hr, dose 5 mg/kg, route intravenous; settings: plasma
[6] = Volume of distribution in C57BL/6J mouse at 5 mg/kg, iv measured up to 8 hrs; type: ADME, organism-based; parameters: dose 5 mg/kg, route intravenous; settings: in vivo
Mus musculus [7] = experiment: AUC in C57BL/6J mouse at 5 mg/kg, iv measured up to 8 hrs; settings: in vivo
Mus musculus [8] = experiment: Inhibition of SCD1 in db/db mouse liver assessed as conversion of [14C]stearate to [14C]oleate administered through oral gavage; type: functional; settings: read-out: ID50 (the source's name)
[9] = Oral bioavailability in C57BL/6J mouse at 20 mg/kg measured up to 8 hrs; type: ADME, organism-based; settings: in vivo
[10] = AUC (0 to 8 hrs) in C57BL/6J mouse at 20 mg/kg, po measured up to 8 hrs; type: ADME, organism-based; parameters: time < 8 hr, dose 20 mg/kg, route oral; settings: plasma
[11] = Half life in C57BL/6J mouse at 20 mg/kg, po measured up to 8 hrs; type: ADME, organism-based; parameters: time < 8 hr, dose 20 mg/kg, route oral; settings: in vivo
[12] = Cmax in C57BL/6J mouse at 20 mg/kg, po measured up to 8 hrs; type: ADME, organism-based; parameters: dose 20 mg/kg, route oral; settings: in vivo
[13] = Tmax in C57BL/6J mouse at 20 mg/kg, po measured up to 8 hrs; type: ADME, organism-based; parameters: dose 20 mg/kg, route oral; settings: in vivo
[14] = Clearance in C57BL/6J mouse at 5 mg/kg, iv measured up to 8 hrs; type: ADME, organism-based; parameters: dose 5 mg/kg, route intravenous; settings: in vivo

COc1ccc(C(=O)Nc2ncc(Cc3cc(Cl)ccc3Cl)s2)cc1OCCO
pIC50 (Acyl-CoA desaturase 1): 8.05 | pIC50 (Stearoyl-CoA desaturase [1]): 6.90 | pIC50 (Stearoyl-CoA desaturase [2]): 6.37

COc1ccc(C(=O)Nc2ncc(Cc3ccc(F)c(F)c3)s2)cc1OCCO
pIC50 (Acyl-CoA desaturase 1): 8.70 | pIC50 (Stearoyl-CoA desaturase [1]): 8.05 | pIC50 (Stearoyl-CoA desaturase [2]): 7.47

COc1ccc2cc(C(=O)Nc3ncc(Cc4cccc(C(F)(F)F)c4)s3)ccc2c1
pIC50 (Acyl-CoA desaturase 1): 8.30 | pIC50 (Stearoyl-CoA desaturase [1]): 8.05 | inhibition [3]: < 5%

COc1cc(C(=O)Nc2ncc(Cc3cccc(C(F)(F)F)c3)s2)ccc1OCC(=O)O
pIC50 (Stearoyl-CoA desaturase [1]): 5.36 | inhibition [3]: < 5%

COc1ccc(C(=O)Nc2ncc(Cc3cccc(C(F)(F)F)c3)s2)cc1OCCO
half-life [4]: 0.9 h | AUC(0-t) at 8 h [5]: 17000 ng·h/mL | Vd [6]: 0.42 L/kg | AUC (Mus musculus [7]): 4700 ng·h/mL | inhibition [3]: 15% | ED50 (Mus musculus [8]): 2 mg/kg

COc1ccc(C(=O)Nc2ncc(Cc3cccc(C(C)(C)C)c3)s2)cc1OCCO
pIC50 (Acyl-CoA desaturase 1): 5.88

COc1ccc(C(=O)Nc2ncc(Cc3cccc(C(F)(F)F)c3)s2)cc1OCC(C)O (stereo not drawn)
pIC50 (Acyl-CoA desaturase 1): 5.66 | pIC50 (Stearoyl-CoA desaturase [1]): 5.67

COc1ccc(C(=O)Nc2ncc(Cc3cccc(C(F)(F)F)c3)s2)cc1OCC(O)CO (stereo not drawn)
pIC50 (Stearoyl-CoA desaturase [1]): < 5.00

COc1cccc(C(=O)Nc2ncc(Cc3cccc(C(F)(F)F)c3)s2)c1
pIC50 (Acyl-CoA desaturase 1): 6.71 | pIC50 (Stearoyl-CoA desaturase [1]): 6.04 | inhibition [3]: 53%

COc1ccc(C(=O)Nc2ncc(Cc3ccc(Cl)c(Cl)c3)s2)cc1OCCO
pIC50 (Acyl-CoA desaturase 1): 9.10 | pIC50 (Stearoyl-CoA desaturase [1]): 9.00 | pIC50 (Stearoyl-CoA desaturase [2]): 7.89

COc1ccc(C(=O)Nc2ncc(Cc3cccc(C(F)(F)F)c3)s2)cc1OC
pIC50 (Acyl-CoA desaturase 1): 7.12 | pIC50 (Stearoyl-CoA desaturase [1]): 6.84 | inhibition [3]: < 5%

COc1ccc(C(=O)Nc2ncc(Cc3cccc(C(F)(F)F)c3)s2)cc1
pIC50 (Stearoyl-CoA desaturase [1]): 5.91

COc1ccc(C(=O)Nc2ncc(Cc3ccc(F)c(C(F)(F)F)c3)s2)cc1OCCO
bioavailability [9]: 3% | Tmax [10]: 1.3 h | AUC at 8 h [11]: 2000 ng·h/mL | Cmax [12]: 550 ng/mL | pIC50 (Acyl-CoA desaturase 1): 9.70 | pIC50 (Stearoyl-CoA desaturase [1]): 9.22 | half-life [13]: 1.3 h | pIC50 (Stearoyl-CoA desaturase [2]): 8.10 | ED50 (Mus musculus [8]): 5 mg/kg

COc1ccc(/C=C/C(=O)Nc2ncc(Cc3cccc(C(F)(F)F)c3)s2)cc1
half-life [4]: 0.4 h | AUC(0-t) at 8 h [5]: 2700 ng·h/mL | clearance [14]: 32 mL/min/kg | pIC50 (Acyl-CoA desaturase 1): 8.70 | Vd [6]: 0.3 L/kg | pIC50 (Stearoyl-CoA desaturase [1]): 8.52 | inhibition [3]: 21%

COc1cc(C(=O)Nc2ncc(Cc3cccc(C(F)(F)F)c3)s2)ccc1OCCO
bioavailability [9]: 0.2% | AUC(0-t) at 8 h [10]: 150 ng·h/mL | half-life [4]: 1.4 h | AUC(0-t) at 8 h [5]: 24000 ng·h/mL | half-life [11]: 1.3 h | clearance [14]: 3.4 mL/min/kg | Cmax [12]: 70 ng/mL | pIC50 (Acyl-CoA desaturase 1): 8.52 | Vd [6]: 0.42 L/kg | pIC50 (Stearoyl-CoA desaturase [1]): 8.00 | inhibition [3]: 16% | Tmax [13]: 0.5 h

COc1ccc(C(=O)Nc2ncc(Cc3ccc(C)c(F)c3)s2)cc1OCCO
pIC50 (Acyl-CoA desaturase 1): 7.66 | pIC50 (Stearoyl-CoA desaturase [1]): 7.09 | pIC50 (Stearoyl-CoA desaturase [2]): 6.19

COc1ccc(C(=O)Nc2ncc(Cc3cc(F)cc(F)c3)s2)cc1OCCO
pIC50 (Acyl-CoA desaturase 1): 10.00 | pIC50 (Stearoyl-CoA desaturase [1]): 8.54 | pIC50 (Stearoyl-CoA desaturase [2]): 6.94

COc1ccc(C(=O)Nc2ncc(Cc3cccc(F)c3)s2)cc1OCCO
pIC50 (Acyl-CoA desaturase 1): 8.70 | pIC50 (Stearoyl-CoA desaturase [1]): 7.96 | pIC50 (Stearoyl-CoA desaturase [2]): 7.47

Cc1ccc(C(=O)Nc2ncc(Cc3cccc(C(F)(F)F)c3)s2)cc1C
pIC50 (Acyl-CoA desaturase 1): 5.09

COc1ccc(C(=O)Nc2ncc(Cc3ccc(F)c(Cl)c3)s2)cc1OCCO
bioavailability [9]: 38% | Tmax [10]: 1 h | AUC at 8 h [11]: 14000 ng·h/mL | Cmax [12]: 3600 ng/mL | pIC50 (Acyl-CoA desaturase 1): 9.00 | pIC50 (Stearoyl-CoA desaturase [1]): 8.70 | half-life [13]: 2.1 h | pIC50 (Stearoyl-CoA desaturase [2]): 7.77 | ED50 (Mus musculus [8]): 2 mg/kg

COc1ccc(C(=O)Nc2ncc(Cc3cccc(C(F)(F)F)c3)s2)cc1OCC(=O)O
pIC50 (Acyl-CoA desaturase 1): < 5.00

COc1ccc(C(=O)Nc2ncc(Cc3cccc(OC(F)(F)F)c3)s2)cc1OCCO
bioavailability [9]: 8% | Tmax [10]: 1.3 h | AUC at 8 h [11]: 4900 ng·h/mL | Cmax [12]: 1200 ng/mL | pIC50 (Acyl-CoA desaturase 1): 8.52 | pIC50 (Stearoyl-CoA desaturase [1]): 8.40 | half-life [13]: 1.5 h | pIC50 (Stearoyl-CoA desaturase [2]): 7.23 | ED50 (Mus musculus [8]): 8 mg/kg

O=C(Nc1ncc(Cc2cccc(C(F)(F)F)c2)s1)c1ccc2ccccc2c1
pIC50 (Acyl-CoA desaturase 1): < 5.00

COc1ccc(C(=O)Nc2ncc(Cc3cccc(C(F)(F)F)c3)s2)cc1OCC(C)(C)O
pIC50 (Acyl-CoA desaturase 1): < 5.00

COc1ccc(C(=O)Nc2ncc(Cc3cccc(Cl)c3)s2)cc1OCCO
bioavailability [9]: 12% | Tmax [10]: 2 h | AUC at 8 h [11]: 10000 ng·h/mL | Cmax [12]: 1800 ng/mL | pIC50 (Acyl-CoA desaturase 1): 9.00 | pIC50 (Stearoyl-CoA desaturase [1]): 8.40 | half-life [13]: 5.4 h | pIC50 (Stearoyl-CoA desaturase [2]): 8.05 | ED50 (Mus musculus [8]): 1 mg/kg

COc1ccc(C(=O)Nc2ncc(Cc3cc(C(F)(F)F)cc(C(F)(F)F)c3)s2)cc1OCCO
pIC50 (Stearoyl-CoA desaturase [1]): 9.70 | pIC50 (Stearoyl-CoA desaturase [2]): 7.59

COc1ccc(C(=O)Nc2ncc(Cc3cccc(C(F)(F)F)c3)s2)cc1OCCCO
pIC50 (Stearoyl-CoA desaturase [1]): < 5.00

COc1cc(C(=O)Nc2ncc(Cc3cccc(C(F)(F)F)c3)s2)ccc1OCCN1CCOCC1
pIC50 (Acyl-CoA desaturase 1): 6.28 | pIC50 (Stearoyl-CoA desaturase [1]): 5.85 | inhibition [3]: < 5%

COc1ccc(C(=O)Nc2ncc(Cc3cc(Cl)cc(Cl)c3)s2)cc1OCCO
pIC50 (Acyl-CoA desaturase 1): 9.15 | pIC50 (Stearoyl-CoA desaturase [1]): 9.00 | pIC50 (Stearoyl-CoA desaturase [2]): 7.89
